Tests used:
[1] = test system: A549-ACE2 infected with SARS-CoV-2; assay: cell count relative to DMSO; higher = less toxic; settings: 24 h
Caco-2 [2] = assay: relative viability EC50 (midpoint between 100% and the lowest measured viability); higher = less toxic; settings: 72 h
U2OS [3] = assay: as above; settings: 72 h
Calu-3 [4] = assay: as above; settings: 72 h
HepG2 [5] = assay: drug sensitivity score (DSS) for viability; higher = more toxic; extreme values may be limits of the assay; settings: 72 h
Caco-2 [6] = assay: as above; settings: 72 h
Vero E6 [7] = assay: as above; settings: 72 h
U2OS [8] = assay: as above; settings: 72 h
Calu-3 [9] = assay: as above; settings: 72 h
[10] = test system: A549-ACE2 infected with SARS-CoV-2; assay: SARS-CoV-2 infection rate relative to DMSO; higher = more infection; settings: 24 h
A549-ACE2 [11] = assay: drug-induced phospholipidosis relative to tamoxifen; higher = more phospholipidosis
[12] = test system: A549-ACE2 infected with SARS-CoV-2; assay: morphology score (similarity to uninfected cells); higher = more like uninfected cells; settings: 24 h
HepG2 [13] = assay: cell viability relative to DMSO; higher = less toxic; settings: 72 h
Caco-2 [14] = assay: as above; settings: 72 h
Vero E6 [15] = assay: as above; settings: 72 h
U2OS [16] = assay: as above; settings: 72 h
Calu-3 [17] = assay: as above; settings: 72 h
A549-ACE2 [18] = assay: phospholipidosis EC50; higher = less potent phospholipidosis inducer

CCN1CCN(c2ccc(Nc3cc(N(C)C(=O)Nc4c(Cl)c(OC)cc(OC)c4Cl)ncn3)cc2)CC1 [NVP-BGJ398]
Settings | SARS-CoV-2 infection rate, [10] [%] | cell count, [1] [%] | cell viability, Caco-2 [14] [%] | cell viability, Calu-3 [17] [%] | cell viability, HepG2 [13] [%] | cell viability, U2OS [16] [%] | cell viability, Vero E6 [15] [%] | morphology score, [12]
1 nM | – | – | 109 | 116 | 111 | 104 | 91.7 | –
10 nM | – | – | 102 | 102 | 100 | 95.1 | 101 | –
0.1 µM | 99 | 91 | – | – | – | – | – | 0.05
100 nM | – | – | 103 | 106 | 110 | 98.1 | 90.5 | –
0.3 µM | 100 | 91 | – | – | – | – | – | -0.02
1 µM | 110 | 98 | – | – | – | – | – | 0.02
1000 nM | – | – | 95.4 | 99.4 | 106 | 89.5 | 90.8 | –
3 µM | 97 | 93 | – | – | – | – | – | 0.2
10000 nM | – | – | 76.1 | 89.8 | 68 | 90.5 | 66.2 | –

Settings | drug sensitivity score | relative viability EC50 [µM]
Caco-2 [2] | – | > 10
Caco-2 [6] | 1.5 | –
Calu-3 [4] | – | > 10
Calu-3 [9] | 0 | –
HepG2 [5] | 1.1 | –
U2OS [3] | – | > 10
U2OS [8] | 0.1 | –
Vero E6 [7] | 2.4 | –

drug-induced phospholipidosis [%], A549-ACE2 [11]
Settings | 0.3 µM | 0.833333 µM | 3.33333 µM | 6.66667 µM | 10 µM | 30 µM
24 h | 7.01 | -3.2 | 0.41 | 0.28 | 8.33 | 40.8
48 h | 5.03 | -4.72 | -2.05 | 0.17 | 2.69 | 25.9
72 h | 3.12 | -9.17 | -6.95 | -2.87 | -1.22 | 27.1

Cc1nc(Nc2cnn(C3CCNCC3)c2)nc2c1N(C)C(=O)c1cc3ccccc3cc1N2C [HTH-01-015]
Settings | SARS-CoV-2 infection rate [%] | cell count [%] | cell viability [%] | morphology score | phospholipidosis EC50 [µM]
A549-ACE2 [18], 24 h | – | – | – | – | 3.28
A549-ACE2 [18], 48 h | – | – | – | – | 3.72
Caco-2 [14], 1 nM | – | – | 94.7 | – | –
Caco-2 [14], 10 nM | – | – | 99.7 | – | –
Caco-2 [14], 100 nM | – | – | 97.7 | – | –
Caco-2 [14], 1000 nM | – | – | 103 | – | –
Caco-2 [14], 10000 nM | – | – | 77.7 | – | –
Calu-3 [17], 1 nM | – | – | 97.1 | – | –
Calu-3 [17], 10 nM | – | – | 108 | – | –
Calu-3 [17], 100 nM | – | – | 99.1 | – | –
Calu-3 [17], 1000 nM | – | – | 108 | – | –
Calu-3 [17], 10000 nM | – | – | 59.4 | – | –
HepG2 [13], 1 nM | – | – | 106 | – | –
HepG2 [13], 10 nM | – | – | 89.3 | – | –
HepG2 [13], 100 nM | – | – | 101 | – | –
HepG2 [13], 1000 nM | – | – | 109 | – | –
HepG2 [13], 10000 nM | – | – | 67.7 | – | –
U2OS [16], 1 nM | – | – | 101 | – | –
U2OS [16], 10 nM | – | – | 108 | – | –
U2OS [16], 100 nM | – | – | 100 | – | –
U2OS [16], 1000 nM | – | – | 107 | – | –
U2OS [16], 10000 nM | – | – | 53.1 | – | –
Vero E6 [15], 1 nM | – | – | 106 | – | –
Vero E6 [15], 10 nM | – | – | 106 | – | –
Vero E6 [15], 100 nM | – | – | 104 | – | –
Vero E6 [15], 1000 nM | – | – | 98.5 | – | –
Vero E6 [15], 10000 nM | – | – | 74.1 | – | –
[1], 0.1 µM | – | 97 | – | – | –
[1], 0.3 µM | – | 102 | – | – | –
[1], 1 µM | – | 103 | – | – | –
[1], 3 µM | – | 99 | – | – | –
[10], 0.1 µM | 105 | – | – | – | –
[10], 0.3 µM | 105 | – | – | – | –
[10], 1 µM | 100 | – | – | – | –
[10], 3 µM | 77 | – | – | – | –
[12], 0.1 µM | – | – | – | -0.27 | –
[12], 0.3 µM | – | – | – | 0.2 | –
[12], 1 µM | – | – | – | 0.05 | –
[12], 3 µM | – | – | – | 0.67 | –

Settings | drug sensitivity score | relative viability EC50 [µM]
Caco-2 [2] | – | > 10
Caco-2 [6] | 0.6 | –
Calu-3 [9] | 1.6 | –
HepG2 [5] | 1 | –
U2OS [8] | 2 | –
Vero E6 [7] | 1.2 | –

drug-induced phospholipidosis [%], A549-ACE2 [11]
Settings | 0.3 µM | 0.833333 µM | 3.33333 µM | 6.66667 µM | 10 µM | 30 µM
24 h | 2.9 | 6.1 | 51.1 | 120 | 118 | 24.5
48 h | 6.71 | 6.12 | 41.5 | 172 | 169 | –
72 h | 6.1 | 4.78 | 42.6 | – | – | –
